Here are results for 44 compounds from the Deep4Chem optical property database.

The data set can be described thus: photoluminescence quantum yield (fraction); solvent given as SMILES.

With `Nc1ccc2c(c1)C(=O)O/C2=C\c1ccc(Cl)cc1`, the photoluminescence quantum yield is 0.08 (in CC#N); 0.1 (in CC(C)=O); 0.2 (in CC(C)CO); 0.18 (in CC(C)O); 0.18 (in CCCO); 0.17 (in CCO). Also, the photoluminescence quantum yield runs as follows: (in CCOC(C)=O) 0.11; (in CCOCC) 0.12; (in CO) 0.14.
On to `CN(C)c1ccc(/C=C/c2nc(N3CCOCC3)c3c([n+]2[O-])CCCC3)cc1`, for which the photoluminescence quantum yield (in ClCCl) was 0.01.
In turn, `CCC1(CC)c2cc(C#Cc3cccs3)ccc2-c2c1c1c(c3c2C(CC)(CC)c2cc(C#Cc4cccs4)ccc2-3)C(CC)(CC)c2cc(C#Cc3cccs3)ccc2-1` yielded a photoluminescence quantum yield (in C1CCOC1) of 0.58.
In the case of `CCOc1ccc(/C=C/C=C/C=C/c2ccc([N+](=O)[O-])cc2)cc1`, the photoluminescence quantum yield runs as follows: (in CC1CCCCC1) 0.22; (in CC#N) 0.017; (in Cc1ccccc1) 0.5; (in ClCCl) 0.068.
`C1=Cc2ccccc2C(=Cc2ccc(-c3cc(-c4ccc(C=C5c6ccccc6C=Cc6ccccc65)cc4)cc(-c4ccc(C=C5c6ccccc6C=Cc6ccccc65)cc4)c3)cc2)c2ccccc21` returned a photoluminescence quantum yield (in C1CCOC1) of 0.0023.
As for `c1cc2ccc3ccc4ccc5ccc1c1c2c3c4c51`, the photoluminescence quantum yield (in C1CCCCC1) came to 0.024.
In turn, `COc1ccc(C2=C3C(C)=CC(C=Cc4ccc(C(=O)OC5C[C@H]6CCC5(C)C6(C)C)cc4)=[N+]3[B-](F)(F)n3c(C)cc(C)c32)cc1` (some centres undefined) had a photoluminescence quantum yield (in Cc1ccccc1) of 0.41.
Turning to `N#Cc1nn(-c2ccccc2)nc1N1CCCC1`, the photoluminescence quantum yield (in CC#N) was 0.886.
`C(=C\c1ccc(N(c2ccccc2)c2ccccc2)cc1)/c1ccc(-c2ccc(/C=C/c3ccc(N(c4ccccc4)c4ccccc4)cc3)cc2)cc1` showed a photoluminescence quantum yield (in ClCCl) of 0.86.
In the case of `Cc1cc(C)n2c1C=C1c3ccccc3C(c3c[nH]c4ccccc34)=[N+]1[B-]2(F)F`, the photoluminescence quantum yield runs as follows: (in C1CCOC1) 0.97; (in CC#N) 0.96; (in CCCCCC) 0.99; (in CO) 0.96; (in Cc1ccccc1) 0.96; (in ClCCl) 0.98.
The compound `CCOC(=O)c1cc(C(=O)OCC)c2cc(NC(=O)C(F)(F)F)ccc2n1` registered a photoluminescence quantum yield (in CCO) of 0.34.
Regarding `CC1=[N+]2C(=C(c3ccccc3)c3c4c(c(C)n3[B-]2(F)F)CCc2ccccc2-4)C2=C1CCc1ccccc12`, the photoluminescence quantum yield (in CC#N) is 0.1.
Compound `CC(C)c1cccc(C(C)C)c1N1C(=O)c2cccc3c(Oc4ccc(Cl)cc4)ccc(c23)C1=O` had a photoluminescence quantum yield (in ClCCl) of 0.64.
`CCCCCCC(CCCCCC)N1C(=O)c2cccc3c(-c4ccccc4)ccc(c23)C1=O`: the photoluminescence quantum yield (in CCCCCC) stood at 0.076; the photoluminescence quantum yield (in CCCCCCCCCCCCCC) came out at 0.094; the photoluminescence quantum yield (in CCCCCCCCCCCO) was determined as 0.76; the photoluminescence quantum yield (in CCCCO) is 0.95; the photoluminescence quantum yield (in CN(C)C=O) stood at 0.74; the photoluminescence quantum yield (in Cc1ccccc1) was found to be 0.5. For the same compound, the photoluminescence quantum yield (in ClC(Cl)Cl) turned out to be 0.78.
Compound `O=c1c2ccccc2c2c(C#C[Si](c3ccccc3)(c3ccccc3)c3ccccc3)c3c(=O)c4ccccc4c3c(C#C[Si](c3ccccc3)(c3ccccc3)c3ccccc3)c12` came in with a photoluminescence quantum yield (in ClC(Cl)Cl) of 0.09.
Still for that read-out and setting: next, `O=C1[C@@H]2[C@H](C(=O)N1c1ccc3cc4ccccc4cc3c1)[C@@H]1C=C[C@H]2C1`: 0.24.
On to `O=C1c2ccccc2-c2nc3c(F)c(F)c(F)c(F)c3n21`, for which the photoluminescence quantum yield (in ClCCl) was 0.22.
For `CCCC1=Cc2nc1ccc1[nH]c(cc1CCC)c1nc(c(OC(C)=O)cc3[nH]c2cc3CCC)C(CCC)=C1`, the photoluminescence quantum yield (in Cc1ccccc1) is 0.28.
For `O=C(O)c1ccccc1-c1nc(-c2ccccc2)c2ccccn12`, the photoluminescence quantum yield (in CC#N) is 0.02.
As for `CC(C)(C)c1cc(-c2c3cc(c(-c4cc(C(C)(C)C)cc(C(C)(C)C)c4)c4ccc([nH]4)c(-c4ccc(Br)cc4)c4nc(c(-c5ccc(Br)cc5)c5ccc2[nH]5)C=C4)N=C3)cc(C(C)(C)C)c1`, where the note is “in ClCCl”, the photoluminescence quantum yield was 0.0127.
For the compound `O=Cc1cc(C=O)c2ccc3c(N4CCCCC4)cc(N4CCCCC4)c4ccc1c2c43`, the photoluminescence quantum yield was 0.92 (in C1COCCO1); 0.88 (in CC#N); 0.9 (in CC(C)=O); 0.93 (in CCCCCC); 0.87 (in CCO); 0.93 (in CCOC(C)=O). The compound also registered a photoluminescence quantum yield (in CO) of 0.83, a photoluminescence quantum yield (in CS(C)=O) of 0.75, a photoluminescence quantum yield (in Cc1ccccc1) of 0.94 and a photoluminescence quantum yield (in ClCCl) of 0.91.
For the setting “in CO”, `c1ccc(N(c2ccccc2)c2ccc(-c3ncc(-c4ccncc4)s3)cc2)cc1` yielded a photoluminescence quantum yield of 0.07.
With `CCCCN(CCCC)c1ccc(C#Cc2cc(C#Cc3c(F)c(F)c(F)c(F)c3F)c(C#Cc3c(F)c(F)c(F)c(F)c3F)cc2C#Cc2ccc(N(CCCC)CCCC)cc2)cc1`, for the setting “in ClCCl”, the photoluminescence quantum yield was 0.17.
For the compound `CC(C)(C)c1ccc2c(c1)sc1[n+]2[B-](F)(F)n2c(c3cccc4cccc2c43)=C1C#N`, the photoluminescence quantum yield runs as follows: (in C1CCOC1) 0.67; (in CC#N) 0.74; (in CCCCCC) 0.68; (in Cc1ccccc1) 0.69; (in ClCCl) 0.7.
For the setting “in Cc1ccccc1”, `CCCC1=Cc2nc1ccc1[nH]c(cc1CCC)c1nc(c(O)cc3[nH]c2cc3CCC)C(CCC)=C1` had a photoluminescence quantum yield of 0.15.
In turn, `F[Si](c1ccccc1)(c1ccccc1)c1cc2ccccc2c2ccccc12` had a photoluminescence quantum yield (in C1CCOC1) of 0.11.
Consider `CNCCCN1c2ccccc2CCc2ccccc21`, for which the photoluminescence quantum yield (in CC#N) amounted to 0.009, the photoluminescence quantum yield (in CO) came to 0.01 and the photoluminescence quantum yield (in O) worked out at 0.012.
`COc1ccc(-c2nc3c([nH]2)C2=CC(=O)S[C@]2(C)[C@@]2(C)SC(=O)C=C32)cc1` displayed a photoluminescence quantum yield (in CC#N) of 0.17.
For `CCOC(=O)c1c(NC(C)(C)C)oc(-c2ccc(-c3ccccc3)cc2)c1C(=O)OCC`, for the setting “in CC#N”, the photoluminescence quantum yield amounted to 0.235.
Under “in ClCCl”, `Cc1cc(-c2nc3c4ccccc4c4ccccc4c3n2-c2ccc(C(C)(C)C)cc2)ccc1-c1ccc(-c2c(-c3ccccc3)nc3ccccn23)cc1` returned a photoluminescence quantum yield of 0.77.
For `c1ccc2cc(-n3cnc4ccccc43)ccc2c1`, the photoluminescence quantum yield (in C1CCCCC1) is 0.23, the photoluminescence quantum yield (in CCOC(C)=O) came out at 0.18 and the photoluminescence quantum yield (in CO) is 0.16.
For `C(=C\c1ccncn1)/c1ccc(-c2ccc(N(c3ccccc3)c3ccccc3)cc2)cc1`, for the setting “in ClCCl”, the photoluminescence quantum yield came to 0.52.
Same read-out and setting: next, `CC(=O)c1c(N[C@H](C(=O)O)C(C)C)c2ccc(N(C)C)cc2oc1=O`: 0.004.
As to `O=P1(c2ccccc2)c2cc(N3c4ccccc4Oc4ccccc43)ccc2-c2ccc(N3c4ccccc4Oc4ccccc43)cc21`, the photoluminescence quantum yield is 0.47 (in Cc1ccccc1) and 0.41 (in c1ccc2c(c1)c1ccccc1n2-c1ccc(-c2ccc(-n3c4ccccc4c4ccccc43)cc2)cc1).
As to `COc1ccc(-c2cc3c4c(c2)CCc2cc(-c5ccc(OC)cc5)cc(c2-4)CC3)cc1`, the photoluminescence quantum yield reads like this: (in C1CCCCC1) 0.81; (in C1CCOC1) 0.76; (in CC#N) 0.6; (in CCCCCC) 0.92; (in CCO) 0.53; (in CN(C)C=O) 0.55. Besides, the photoluminescence quantum yield was 0.45 (in CO), 1 (in Cc1ccccc1), 0.39 (in ClC(Cl)Cl) and 1 (in ClCCl).
The compound `O=C1NC(=O)/C(=C\c2ccccc2O)S1` registered a photoluminescence quantum yield (in C1CCCCC1) of 0.02; a photoluminescence quantum yield (in C1COCCO1) of 0.031; a photoluminescence quantum yield (in CC#N) of 0.025; a photoluminescence quantum yield (in CN(C)C=O) of 0.064; a photoluminescence quantum yield (in CO) of 0.02; a photoluminescence quantum yield (in O) of 0.011. The photoluminescence quantum yield turned out to be 0.632 (in OCC(O)CO) and 0.115 (in OCCO).
With `CCCCOc1ccc(/C=C/C=C/C=C/c2ccc([N+](=O)[O-])cc2)cc1`, the photoluminescence quantum yield is 0.25 (in CC1CCCCC1), 0.014 (in CC#N), 0.53 (in Cc1ccccc1) and 0.06 (in ClCCl).
For `Cc1cc2cc3cc(C)c(C)cc3cc2cn1`, for the setting “in CCO”, the photoluminescence quantum yield stood at 0.44.
`Cc1ccc(C2=C3C=CC(Sc4ccccc4)=[N+]3[B-](F)(F)n3c(Sc4ccccc4)ccc32)cc1`: the photoluminescence quantum yield (in C1CCOC1) came to 0.82.
Compound `Cc1c2c(c(C)c3ccccc13)C1=C2C=CC2Nc3ccccc3NC12` (centres undefined) returned a photoluminescence quantum yield (in ClC(Cl)Cl) of 0.74.
In turn, `COc1ccc(-c2nc(-c3ccccc3)c(-c3ccccc3)[nH]2)cc1` gave a photoluminescence quantum yield (in CO) of 0.18.
As for `O=c1oc2ccccc2cc1-c1nc2ccccc2o1`, the photoluminescence quantum yield runs as follows: (in C1CCOC1) 0.77; (in C1COCCO1) 0.84; (in CC1CCCCC1) 0.94; (in CC#N) 0.72; (in CC(C)=O) 0.76; (in CC(C)CO) 0.8. Also, the photoluminescence quantum yield came out at 0.76 (in CC(C)O); 0.86 (in CCOC(C)=O); 0.72 (in CN(C)C=O); 0.67 (in CO); 0.77 (in CS(C)=O); 0.83 (in Cc1ccccc1). The photoluminescence quantum yield by setting is: (in ClC(Cl)(Cl)Cl) 0.92; (in ClC(Cl)Cl) 0.87; (in OCCO) 0.68.
`O=C1OC(=O)c2cc(Oc3ccccc3)c3c4ccc5c6c(cc(Oc7ccccc7)c(c7ccc1c2c73)c64)C(=O)OC5=O`: the photoluminescence quantum yield turned out to be 0.5 (in C1CCOC1), 0.2 (in CN1CCCC1=O) and 0.6 (in CN(C)C=O).
On to `CCCC1=Cc2nc1ccc1[nH]c(cc1CCOC)c1nc(ccc3[nH]c2cc3CCC)C(CCOC)=C1`, for which the photoluminescence quantum yield (in Cc1ccccc1) came out at 0.54.
